Molecular target: T1, human recombinant HDAC6 (Homo sapiens, UniProt Q9UBN7)
T1 construct: purchased Calbiochem 382180
T1 sequence (Q9UBN7 1-1215): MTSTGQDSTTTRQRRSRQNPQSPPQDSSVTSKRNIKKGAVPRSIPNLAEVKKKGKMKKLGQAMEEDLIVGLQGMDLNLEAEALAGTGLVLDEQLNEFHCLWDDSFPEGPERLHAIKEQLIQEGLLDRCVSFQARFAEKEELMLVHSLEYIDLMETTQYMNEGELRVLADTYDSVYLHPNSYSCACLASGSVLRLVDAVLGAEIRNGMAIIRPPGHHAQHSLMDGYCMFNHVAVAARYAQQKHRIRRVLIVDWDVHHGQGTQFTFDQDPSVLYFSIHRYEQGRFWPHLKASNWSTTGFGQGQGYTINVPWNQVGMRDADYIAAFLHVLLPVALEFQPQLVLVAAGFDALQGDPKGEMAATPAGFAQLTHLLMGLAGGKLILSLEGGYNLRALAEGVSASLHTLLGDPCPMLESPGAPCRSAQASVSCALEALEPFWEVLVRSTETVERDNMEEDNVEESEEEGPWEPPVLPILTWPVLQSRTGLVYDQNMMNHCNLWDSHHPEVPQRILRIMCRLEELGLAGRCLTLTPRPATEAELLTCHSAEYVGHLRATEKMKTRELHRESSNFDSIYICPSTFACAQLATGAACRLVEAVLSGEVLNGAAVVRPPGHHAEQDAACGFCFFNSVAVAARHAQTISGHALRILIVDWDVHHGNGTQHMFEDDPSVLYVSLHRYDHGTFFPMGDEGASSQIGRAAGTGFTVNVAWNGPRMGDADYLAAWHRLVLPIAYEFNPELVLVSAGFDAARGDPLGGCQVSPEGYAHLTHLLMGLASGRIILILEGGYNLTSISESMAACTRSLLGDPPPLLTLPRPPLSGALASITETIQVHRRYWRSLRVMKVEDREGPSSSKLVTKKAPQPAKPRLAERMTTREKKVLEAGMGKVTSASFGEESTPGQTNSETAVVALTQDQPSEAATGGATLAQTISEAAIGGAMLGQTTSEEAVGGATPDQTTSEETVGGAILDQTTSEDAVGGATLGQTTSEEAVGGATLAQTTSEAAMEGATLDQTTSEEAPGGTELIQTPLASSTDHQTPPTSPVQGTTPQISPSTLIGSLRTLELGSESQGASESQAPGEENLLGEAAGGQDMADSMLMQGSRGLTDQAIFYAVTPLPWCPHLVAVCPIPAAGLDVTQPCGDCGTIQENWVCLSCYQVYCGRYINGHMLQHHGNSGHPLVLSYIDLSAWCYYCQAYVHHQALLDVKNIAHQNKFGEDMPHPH
Experiment: HDAC enzyme activity inhibition assay (HDAC6, fluorimetric kit)
Format: biochemical
Settings: for HDAC6 selectivity (fold): HDAC6 versus HDAC1; for IC50: same protocol as the HDAC1 test
Protocol: In order to examine the HDAC6 selectivity of the compounds of formula I of the present invention by HDAC1 and HDAC6 enzymatic activity inhibition assays, an experiment was performed using a conventional substance as a control. HDAC enzyme activity was measured using a HDAC Fluorimetric Drug Discovery Kit (BML-AK511, 516) from Enzo Life Science. For the HDAC1 enzyme activity test, human recombinant HDAC1 (BML-SE456) was used as an enzyme source, and Fluor de Lys®-“SIRT1 (BNL-KI177) was used as a substrate. A 5-fold dilution of the compound was seeded into a 96-well plate, and then 0.3 μg of the enzyme and 10 μM of the substrate were added to each well of the plate and allowed to react at 30° C. for 60 minutes. Then, Fluor de Lys®-Developer II (BML-KI176) was added thereto and allowed to react for 30 minutes, after which the fluorescence value (Ex 360, Em 460) was measured using a multi-plate reader (Flexstation 3, Molecular Device). The HDAC6 enzyme was tested using human recombinant HDAC6 (382180) from Calbiochem, according to the same protocol as the HDAC1 enzyme activity test method. Based on the resulting values, each IC50 value was calculated using GraphPad Prism4.0 program.

SMILES	HDAC6 selectivity (fold)	IC50
Cl.O=C(C1CNC1)N(Cc1ccc(-c2nnc(C(F)(F)F)o2)cc1)c1ccccc1 [Compound 11136, N-phenyl-N-(4-(5-(trifluoromethyl)-1,3,4-oxadiazol-2-yl)benzyl)azetidine-3-carboxamide hydrochloride]	493 fold	203 nM
CCC(=O)N1CC(C(=O)N(Cc2ccc(-c3nnc(C(F)(F)F)o3)cc2F)c2ccccc2)C1 [Compound 11235, N-(2-fluoro-4-(5-(trifluoromethyl)-1,3,4-oxadiazol-2-yl)benzyl)-N-phenyl-1-propionylazetidine-3-carboxamide]	1538 fold	65 nM
CC(=O)N1CCC(C(=O)N(Cc2ccc(-c3nnc(C(F)(F)F)o3)cc2)c2ccccc2)CC1 [Compound 11161, 1-acetyl-N-phenyl-N-(4-(5-(trifluoromethyl)-1,3,4-oxadiazol-2-yl)benzyl)piperidine-4-carboxamide]	204 fold	489 nM
CC(=O)N1CC(C(=O)N(Cc2ccc(-c3nnc(C(F)(F)F)o3)cc2)c2ccccc2)C1 [Compound 11187, N1-acetyl-N-phenyl-N-(4-(5-(trifluoromethyl)-1,3,4-oxadiazol-2-yl)benzyl)azetidine-3-carboxamide]	144 fold	189 nM
O=C(C1CCN(C(=O)C(F)(F)F)CC1)N(Cc1ccc(-c2nnc(C(F)(F)F)o2)cc1)c1ccccc1 [Compound 11164, N-phenyl-1-(2,2,2-trifluoroacetyl)-N-(4-(5-(trifluoromethyl)-1,3,4-oxadiazol-2-yl)benzyl)piperidine-4-carboxamide]	298 fold	336 nM
CCC(=O)N1CCC(C(=O)N(Cc2ccc(-c3nnc(C(F)(F)F)o3)cc2)c2ccccc2)CC1 [Compound 11162, N-phenyl-1-propionyl-N-(4-(5-(trifluoromethyl)-1,3,4-oxadiazol-2-yl)benzyl)piperidine-4-carboxamide]	483 fold	207 nM
CC(C)N1CC(C(=O)N(Cc2ccc(-c3nnc(C(F)(F)F)o3)cc2)c2ccccc2)C1 [Compound 11142, 1-isopropyl-N-phenyl-N-(4-(5-(trifluoromethyl)-1,3,4-oxadiazol-2-yl)benzyl)azetidine-3-carboxamide]	303 fold	330 nM
CCN1CC(C(=O)N(Cc2ccc(-c3nnc(C(F)(F)F)o3)cc2)c2ccccc2)C1 [Compound 11139, 1-ethyl-N-phenyl-N-(4-(5-(trifluoromethyl)-1,3,4-oxadiazol-2-yl)benzyl)azetidine-3-carboxamide]	775 fold	129 nM
O=C(C1CCN(C2COC2)CC1)N(Cc1ccc(-c2nnc(C(F)F)o2)cc1F)c1ccccc1 [Compound 11622, N-(4-(5-(difluoromethyl)-1,3,4-oxadiazol-2-yl)-2-fluorobenzyl)-1-(oxetan-3-yl)-N-phenylpiperidine-4-carboxamide]	714 fold	140 nM
O=C(c1ccccc1)N(Cc1ccc(-c2nnc(C(F)(F)F)o2)cc1)c1ccccc1 [Compound 11107, N-phenyl-N-(4-(5-(trifluoromethyl)-1,3,4-oxadiazol-2-yl)benzyl)benzamide]	196 fold	509 nM
O=C(c1ccncc1)N(Cc1ccc(-c2nnc(C(F)(F)F)o2)cn1)c1ccccc1 [Compound 11584, N-phenyl-N-((5-(5-(trifluoromethyl)-1,3,4-oxadiazol-2-yl)pyridin-2-yl)methyl)isonicotinamide]	1695 fold	59 nM
CN1CCC(C(=O)N(Cc2ccc(-c3nnc(C(F)(F)F)o3)cc2)c2ccccc2)CC1 [Compound 11140, 1-methyl-N-phenyl-N-(4-(5-(trifluoromethyl)-1,3,4-oxadiazol-2-yl)benzyl)piperidine-4-carboxamide]	478 fold	209 nM
O=C(CN1CCN(C2COC2)CC1)N(Cc1ccc(-c2nnc(C(F)F)o2)cc1F)c1ccc(F)c(Cl)c1 [Compound 11614, N-(3-chloro-4-fluorophenyl)-N-(4-(5-(difluoromethyl)-1,3,4-oxadiazol-2-yl)-2-fluorobenzyl)-2-(4-(oxetan-3-yl)piperazin-1-yl)acetamide]	1190 fold	84 nM

The remaining lines, values ahead:

HDAC6 selectivity (fold)	IC50	SMILES
1124 fold	89 nM	CCC(=O)N1CCC(C(=O)N(Cc2ccc(-c3nnc(C(F)F)o3)cc2F)c2ccccc2)CC1 [Compound 11212, N-(4-(5-(difluoromethyl)-1,3,4-oxadiazol-2-yl)-2-fluorobenzyl)-N-phenyl-1-propionylpiperidine-4-carboxamide]
2857 fold	35 nM	CC(=O)N1CC(C(=O)N(Cc2ccc(-c3nnc(C(F)F)o3)cc2F)c2ccccc2)C1 [Compound 11241, 1-acetyl-N-(4-(5-(difluoromethyl)-1,3,4-oxadiazol-2-yl)-2-fluorobenzyl)-N-phenylazetidine-3-carboxamide]
3333 fold	30 nM	CCN1CCC(C(=O)N(Cc2ccc(-c3nnc(C(F)F)o3)cn2)c2cccc(F)c2)CC1 [Compound 11419, N-((5-(5-(difluoromethyl)-1,3,4-oxadiazol-2-yl)pyridin-2-yl)methyl)-1-ethyl-N-(3-fluorophenyl)piperidine-4-carboxamide]
2500 fold	40 nM	CN1CCC(C(=O)N(Cc2ccc(-c3nnc(C(F)F)o3)cn2)c2ccccc2)CC1 [Compound 11414, N-((5-(5-(difluoromethyl)-1,3,4-oxadiazol-2-yl)pyridin-2-yl)methyl)-1-methyl-N-phenylpipetidine-4-carboxamide]
1042 fold	96 nM	O=C(CN1CC[C@H](O)C1)N(Cc1ccc(-c2nnc(C(F)F)o2)cc1F)c1ccc(F)c(Cl)c1 [Compound 11536, (S)-N-(3-chloro-4-fluorophenyl)-N-(4-(5-(difluoromethyl)-1,3,4-oxadiazol-2-yl)-2-fluorobenzyl)-2-(3-hydroxypyrrolidin-1-yl)acetamide]
1149 fold	87 nM	CCCC(=O)N(Cc1ccc(-c2nnc(C(F)F)o2)cc1F)c1cccc(F)c1 [Compound 11357, N-(4-(5-(difluoromethyl)-1,3,4-oxadiazol-2-yl)-2-fluorobenzyl)-N-(3-fluorophenyl)butyramide]
3125 fold	32 nM	CC(C)C(=O)N1CC(C(=O)N(Cc2ccc(-c3nnc(C(F)F)o3)cc2F)c2ccccc2)C1 [Compound 11243, N-(4-(5-(difluoromethyl)-1,3,4-oxadiazol-2-yl)-2-fluorobenzyl)-1-isobutyryl-N-phenylazetidine-3-carboxamide]
1667 fold	60 nM	CS(=O)(=O)N1CCC(C(=O)N(Cc2ccc(-c3nnc(C(F)F)o3)cc2F)c2ccccc2)CC1 [Compound 11215, N-(4-(5-(difluoromethyl)-1,3,4-oxadiazol-2-yl)-2-fluorobenzyl)-1-(methylsulfonyl)-N-phenylpiperidine-4-carboxamide]
1961 fold	51 nM	CCC(=O)N(Cc1ccc(-c2nnc(C(F)F)o2)cc1F)c1cccc(F)c1 [Compound 11356, N-(4-(5-(difluoromethyl)-1,3,4-oxadiazol-2-yl)-2-fluorobenzyl)-N-(3-fluorophenyl)propionamide]

— patent US10584117B2, “1,3,4-oxadiazole amide derivative compound as histone deacetylase 6 inhibitor, and pharmaceutical composition containing same” (Chong Kun Dang Pharmaceutical Corp., priority 2015, dated 2020)
